US7964635B2, “Amidoacetonitrile derivatives” (Novartis AG, priority 2003, dated 2011)
Blank lines part the entries; values can stand above or below the compound they belong to.

What was measured:
Haemonchus contortus = assay: In-vivo test on Haemonchus contortus on Mongolian gerbils using peroral application; conditions: po, 72 h, worm count 3 days after treatment, read-out: Hc: efficacy, % reduction of the number of worms; for inhibition in vivo at 1 mg/kg: 1 mg/kg peroral; for inhibition in vivo at 3.2 mg/kg: 3.2 mg/kg peroral; for inhibition in vivo at 10 mg/kg: 10 mg/kg peroral
Procedure: (§1) 1. In-Vivo Test on Trichostrongylus colubriformis and Haemonchus contortus on Mongolian Gerbils (Meriones uncuiculatus) Using Peroral Application Six to eight week old Mongolian gerbils are infected through a stomach tube with ca. 2000 third instar larvae each of T. colubriformis and H. contortus. 6 days after infection, the gerbils are treated by peroral application with the test compounds, dissolved in a mixture of 2 parts DMSO and 1 part polyethylene glycol (PEG 400), in quantities of 100, 32 and 10-0.1 mg/kg. On day 9 (3 days after treatment), when most of the H. contortus that are still present are late 4th instar larvae and most of the T. colubriformis are immature adults, the gerbils are killed in order to count the worms. The efficacy is calculated as the % reduction of the number of worms in each gerbil, compared with the geometric average of number of worms from 6 infected and untreated gerbils. The following tables B1, B2 and B3 show a comparison of a series of the compounds of tables 1, 2 and 3 with structurally most closely related ones known from literature, proving the astounding efficacy increase in this test over the state of the art (Hc: Haemonchus contortus; Tc: Trichostrongylus colubriformis): […]

[1] = tested on: Trichostrongylus colubriformis; assay: In-vivo test on Trichostrongylus colubriformis on Mongolian gerbils using peroral application; conditions: po, 72 h, worm count 3 days after treatment, read-out: Tc: efficacy, % reduction of the number of worms; for inhibition in vivo at 1 mg/kg: 1 mg/kg peroral; for inhibition in vivo at 3.2 mg/kg: 3.2 mg/kg peroral; for inhibition in vivo at 10 mg/kg: 10 mg/kg peroral
Procedure: as §1

- melting point: 147 to 149 °C
SMILES: CC(C#N)(COc1cc(C#N)ccc1Cl)NC(=O)c1ccc(C(F)(F)F)cc1 (stereo not drawn) [No. 1.4, N-[1-cyano-1-methyl-2-(5-cyano-2-chlorophenoxy)-ethyl]-4-trifluoromethylbenzamide]
- inhibition in vivo at 1 mg/kg (Haemonchus contortus): 82%

- melting point: 79 to 82 °C
SMILES: CC(C#N)(COc1ccc(C#N)cc1C(F)(F)F)NC(=O)c1ccc(SC(F)(F)F)cc1 (stereo not drawn) [No. 3.7, N-[1-cyano-1-methyl-2-(4-cyano-2-trifluoromethylphenoxy)-ethyl]-4-trifluoromethylsulfanyl-benzamide]
- inhibition in vivo at 1 mg/kg (Haemonchus contortus): 90%
- inhibition in vivo at 1 mg/kg [1]: 98%

- melting point: 147 to 149 °C
SMILES: CC(C#N)(COc1ccc(C#N)cc1Cl)NC(=O)c1ccc(C(F)(F)F)cc1 (stereo not drawn) [No. 1.1, N-[1-cyano-1-methyl-2-(4-cyano-2-chlorophenoxy)-ethyl]-4-trifluoromethylbenzamide]
- inhibition in vivo at 1 mg/kg (Haemonchus contortus): 97%
- inhibition in vivo at 1 mg/kg [1]: 87%

- melting point: 60 to 62 °C
SMILES: CC(C#N)(COc1ccc(C#N)cc1Cl)NC(=O)c1ccc(OC(F)(F)F)cc1 (stereo not drawn) [No. 2.1, N-[1-cyano-1-methyl-2-(4-cyano-2-chlorophenoxy)-ethyl]-4-trifluoromethoxybenzamide]
- inhibition in vivo at 3.2 mg/kg (Haemonchus contortus): 100%
- inhibition in vivo at 3.2 mg/kg [1]: 100%

SMILES: CC(C#N)(COc1ccc(Cl)cc1Cl)NC(=O)c1ccc(C(F)(F)F)cc1 (stereo not drawn) [No. 1.60, reference compound]
- inhibition in vivo at 3.2 mg/kg (Haemonchus contortus): 29%
- inhibition in vivo at 3.2 mg/kg [1]: 31%

SMILES: CC(C#N)(COc1cc(C#N)ccc1C(F)(F)F)NC(=O)c1ccc(S(=O)(=O)C(F)(F)F)cc1 (stereo not drawn) [No. 3.18, N-[1-cyano-1-methyl-2-(5-cyano-2-trifluoromethylphenoxy)-ethyl]-4-trifluoromethylsulfonyl-benzamide]
- inhibition in vivo at 1 mg/kg (Haemonchus contortus): 100%
- inhibition in vivo at 1 mg/kg [1]: 100%

SMILES: CC(C#N)(COc1ccccc1C(F)(F)F)NC(=O)c1ccc(C(F)(F)F)cc1 (stereo not drawn) [No. 1.264, reference compound]
- inhibition in vivo at 3.2 mg/kg (Haemonchus contortus): 57%
- inhibition in vivo at 3.2 mg/kg [1]: 76%

- melting point: 80 to 82 °C
SMILES: CC(C#N)(COc1ccc(C#N)cc1C(F)(F)F)NC(=O)c1ccc(OC(F)(F)F)cc1 (stereo not drawn) [No. 2.3, N-[1-cyano-1-methyl-2-(4-cyano-2-trifluoromethylphenoxy)-ethyl]-4-trifluoromethoxy-benzamide]

- melting point: 132 to 134 °C
SMILES: CC(C#N)(COc1cc(C#N)ccc1Cl)NC(=O)c1ccc(OC(F)(F)F)cc1 (stereo not drawn) [No. 2.4, N-[1-cyano-1-methyl-2-(5-cyano-2-chlorophenoxy)-ethyl]-4-trifluoromethoxybenzamide]
- inhibition in vivo at 1 mg/kg (Haemonchus contortus): 89%
- inhibition in vivo at 1 mg/kg [1]: 79%

SMILES: CC(C#N)(COc1ccccc1Cl)NC(=O)c1ccc(C(F)(F)F)cc1 (stereo not drawn) [No. 1.12, reference compound]
- inhibition in vivo at 10 mg/kg (Haemonchus contortus): 82%
- inhibition in vivo at 10 mg/kg [1]: 98%

SMILES: CC(C#N)(COc1ccc(C#N)cc1C(F)(F)F)NC(=O)c1ccc([S+]([O-])C(F)(F)F)cc1 (stereo not drawn) [No. 3.8, N-[1-cyano-1-methyl-2-(4-cyano-2-trifluoromethylphenoxy)-ethyl]-4-trifluoromethylsulfinyl-benzamide]
- inhibition in vivo at 1 mg/kg (Haemonchus contortus): 74%
- inhibition in vivo at 1 mg/kg [1]: 85%

- melting point: 154 °C
SMILES: CC(C#N)(COc1cc(C#N)ccc1C(F)(F)F)NC(=O)c1ccc(C(F)(F)F)cc1 (stereo not drawn) [No. 1.6, N-[1-cyano-1-methyl-2-(5-cyano-2-trifluoromethylphenoxy)-ethyl]-4-trifluoromethyl-benzamide]
- inhibition in vivo at 1 mg/kg (Haemonchus contortus): 97%
- inhibition in vivo at 1 mg/kg [1]: 87%

SMILES: CC(C#N)(COc1ccccc1C(F)(F)F)NC(=O)c1ccc(C(F)(F)F)cc1F (stereo not drawn) [No. 2.19, reference compound]
- inhibition in vivo at 10 mg/kg (Haemonchus contortus): 25%
- inhibition in vivo at 10 mg/kg [1]: 0%

SMILES: CC(C#N)(COc1cc(Cl)ccc1Cl)NC(=O)c1ccc(C(F)(F)F)cc1 (stereo not drawn) [No. 1.72, reference compound]
- inhibition in vivo at 10 mg/kg (Haemonchus contortus): 66%

SMILES: CC(C#N)(COc1ccc(C#N)cc1C(F)(F)F)NC(=O)c1ccc(S(=O)(=O)C(F)(F)F)cc1 (stereo not drawn) [No. 3.9, N-[1-cyano-1-methyl-2-(4-cyano-2-trifluoromethylphenoxy)-ethyl]-4-trifluoromethylsulfonyl-benzamide]
- inhibition in vivo at 1 mg/kg (Haemonchus contortus): 77%
- inhibition in vivo at 1 mg/kg [1]: 87%

SMILES: CC(C#N)(COc1ccccc1C(F)(F)F)NC(=O)c1ccc(SC(F)(F)F)cc1 (stereo not drawn) [No. 2.14, reference compound]
- inhibition in vivo at 3.2 mg/kg (Haemonchus contortus): 61%
- inhibition in vivo at 3.2 mg/kg [1]: 73%

SMILES: CC(C#N)(COc1cc(C#N)ccc1C(F)(F)F)NC(=O)c1ccc(OC(F)(F)F)cc1 (stereo not drawn) [No. 2.6, N-[1-cyano-1-methyl-2-(5-cyano-2-trifluoromethylphenoxy)-ethyl]-4-trifluoromethoxybenzamide]
- inhibition in vivo at 1 mg/kg (Haemonchus contortus): 95%
- inhibition in vivo at 1 mg/kg [1]: 85%

- melting point: 184 to 186 °C
SMILES: CC(C#N)(COc1ccc(C#N)cc1C(F)(F)F)NC(=O)c1ccc(C(F)(F)F)cc1 (stereo not drawn) [No. 1.3, N-[1-cyano-1-methyl-2-(4-cyano-2-trifluoromethylphenoxy)-ethyl]-4-trifluoromethyl-benzamide]
- inhibition in vivo at 1 mg/kg (Haemonchus contortus): 97%
- inhibition in vivo at 1 mg/kg [1]: 91%

- melting point: 167 to 169 °C
SMILES: CC(C#N)(COc1ccc(C#N)cc1Cl)NC(=O)c1ccc(SC(F)(F)F)cc1 (stereo not drawn) [No. 3.1, N-[1-cyano-1-methyl-2-(4-cyano-2-chlorophenoxy)-ethyl]-4-trifluoromethylsulfanylbenzamide]
- inhibition in vivo at 1 mg/kg (Haemonchus contortus): 69%
- inhibition in vivo at 1 mg/kg [1]: 93%

SMILES: CC(C#N)(COc1cc(Cl)ccc1Cl)NC(=O)c1ccc(OC(F)(F)F)cc1 (stereo not drawn) [No. 1.124, reference compound]
- inhibition in vivo at 10 mg/kg (Haemonchus contortus): 84%
- inhibition in vivo at 10 mg/kg [1]: 99%

SMILES: CC(C#N)(COc1cc(C#N)ccc1C(F)(F)F)NC(=O)c1ccc([S+]([O-])C(F)(F)F)cc1 (stereo not drawn) [No. 3.17, N-[1-cyano-1-methyl-2-(5-cyano-2-trifluoromethylphenoxy)-ethyl]-4-trifluoromethylsulfinyl-benzamide]
- inhibition in vivo at 1 mg/kg (Haemonchus contortus): 100%
- inhibition in vivo at 1 mg/kg [1]: 100%

SMILES: CC(C#N)(COc1ccccc1C(F)(F)F)NC(=O)c1ccc(OC(F)(F)F)cc1 (stereo not drawn) [No. 1.64, reference compound]
- inhibition in vivo at 1 mg/kg (Haemonchus contortus): 28%
- inhibition in vivo at 1 mg/kg [1]: 55%

SMILES: CC(C#N)(COc1cc(C#N)ccc1C(F)(F)F)NC(=O)c1ccc(SC(F)(F)F)cc1 (stereo not drawn) [No. 3.16, N-[1-cyano-1-methyl-2-(5-cyano-2-trifluoromethylphenoxy)-ethyl]-4-trifluoromethylsulfanyl-benzamide]
- inhibition in vivo at 1 mg/kg (Haemonchus contortus): 100%
- inhibition in vivo at 1 mg/kg [1]: 100%

- melting point: 125 to 127 °C
SMILES: CC(C#N)(COc1cc(C#N)ccc1Cl)NC(=O)c1ccc(SC(F)(F)F)cc1 (stereo not drawn) [No. 3.10, N-[1-cyano-1-methyl-2-(5-cyano-2-chlorophenoxy)-ethyl]-4-trifluoromethylsulfanylbenzamide]
- inhibition in vivo at 1 mg/kg (Haemonchus contortus): 100%
- inhibition in vivo at 1 mg/kg [1]: 100%
